≈ marks a conversion by molar mass, not a printed value. Starred links: 1 amine or outer side, 2 acyl side, 3 side chain; linkers in the order of their positions; H or OH if unused. Positions of bridges follow the written chain, without caps; N, C: chain ends. Non-standard residues stand in square brackets, D forms with d. Residues, ends and D or L forms follow the SMILES beside them. *: point of attachment. pTerphenylCO(4''-OnC5H11) = CCCCCOc1ccc(-c2ccc(-c3ccc(C(=O)*)cc3)cc2)cc1; Orn(4R-OH,5R-OH) = O=C([C@H](C[C@@H](O)[C@@H](O)N[*:3])N[*:1])[*:2]; hTyr(3S-OH,4S-OH) = N[C@H](C(=O)O)[C@H](O)[C@@H](O)c1ccc(O)cc1; X1 = COP(=O)(O)Oc1ccc(C[C@@H](O)[C@H](N[*:1])C(=O)[*:2])cc1; Orn(4R-OH) = O=C([C@H](C[C@@H](O)CN[*:3])N[*:1])[*:2]; Pro(3S-OH,4S-Me) = C[C@H]1CN[C@H](C(=O)O)[C@H]1O; Hyp = O=C(O)[C@@H]1C[C@@H](O)CN1

What is called MIC is the lowest concentration found to suppress growth. The ED50 is the dose that gives a 50% effect, or the effect in half of the subjects. Low values mean greater potency, high ones weaker potency.

Test [1] concerns Candida albicans. Put plainly: In vitro antifungal activity against candida albicans. In kind it is functional.
Test [2] has as its system Candida albicans. Nature of the test: In vitro antifungal activity against candida albicans after intraperitoneal administration of the compound. In kind it is functional. To be noted: ip.

In the case of `CCCCCOc1ccc(-c2ccc(-c3ccc(C(=O)N[C@H]4C[C@@H](O)CNC(=O)[C@@H]5[C@@H](O)[C@@H](C)CN5C(=O)[C@H]([C@@H](C)O)NC(=O)[C@H]([C@H](O)Cc5ccc(OP(=O)(O)OC)cc5)NC(=O)[C@@H]5C[C@@H](O)CN5C(=O)[C@H]([C@@H](C)O)NC4=O)cc3)cc2)cc1` ({pTerphenylCO(4''-OnC5H11)}-[Orn(4R-OH)]T[Hyp][X1]T[Pro(3S-OH,4S-Me)]; lactam 1-C), in the test on Candida albicans [1], the MIC stood at 0.312 µg/mL (≈ 0.26 µM). In the test on Candida albicans [2], the median effective dose (ED50) was determined as 0.47 mg/kg.
For the molecule `CCCCCOc1ccc(-c2ccc(-c3ccc(C(=O)N[C@H]4C[C@@H](O)[C@@H](O)NC(=O)[C@@H]5[C@@H](O)[C@@H](C)CN5C(=O)[C@H]([C@@H](C)O)NC(=O)[C@H]([C@H](O)[C@@H](O)c5ccc(O)cc5)NC(=O)[C@@H]5C[C@@H](O)CN5C(=O)[C@H]([C@@H](C)O)NC4=O)cc3)cc2)cc1` [ANIDULAFUNGIN] ({pTerphenylCO(4''-OnC5H11)}-[Orn(4R-OH,5R-OH)]T[Hyp][hTyr(3S-OH,4S-OH)]T[Pro(3S-OH,4S-Me)]; lactam 1-C), the minimum inhibitory concentration (MIC) against Candida albicans [1] amounted to 0.01 µg/mL (≈ 0.00877 µM). Also, it took a dose of 0.32 mg/kg to reach the 50% effect level in the test with Candida albicans [2] (ED50).
